ChEMBL document CHEMBL3400091, “4-Dechloro-14-deoxy-oxacyclododecindione and 14-deoxy-oxacylododecindione, two inhibitors of inducible connective tissue growth factor expression from the imperfect fungus Exserohilum rostratum” (Bioorg Med Chem, 2015)
Blank lines part the entries; values can stand above or below the compound they belong to. Activity calls are given as the source filed them. No cut-off for these calls is given here.

Experiments:
[1] = (§1) Binding affinity to (AGCCAGACA)9-MLP element (unknown origin) transiently transfected in human HepG2 cells assessed as inhibition of TGF-beta-induced Smad-dependent transcriptional activity preincubated for 1 hr before TGF-beta stimulation measured after 16 hrs by luciferase reporter assay; assay type: cell-based
[2] = (§2) Inhibition of TGF-beta-induced human CTGF promoter activity transiently transfected in human HepG2 cells after 16 hrs by luciferase reporter assay; assay type: cell-based; conditions: HepG2, 16 h
MDA-MB-231 [3] = test: Antimigratory activity against human MDA-MB-231 cells assessed as reduction in formation of tubule-like structures after 16 hrs by matrigel assay relative to control; assay type: functional, cell-based
HepG2 [4] = test: Inhibition of TGF-beta-induced human CTGF promoter activity transiently transfected in human HepG2 cells assessed as reduction in type 1 collagen alpha1 expression preincubated at 700 nM for 1 hr before TGF-beta stimulation measured after 6 hrs by quantitative real-time PCR analysis; assay type: cell-based
HepG2 [5] = test: Inhibition of TGF-beta-induced human CTGF promoter activity transiently transfected in human HepG2 cells assessed as reduction in mmp2 expression preincubated at 700 nM for 1 hr before TGF-beta stimulation measured after 6 hrs by quantitative real-time PCR analysis; assay type: cell-based
HepG2 [6] = test: Inhibition of TGF-beta-induced human CTGF promoter activity transiently transfected in human HepG2 cells assessed as reduction in tgf-beta expression preincubated at 700 nM for 1 hr before TGF-beta stimulation measured after 6 hrs by quantitative real-time PCR analysis; assay type: cell-based
HepG2 [7] = test: Inhibition of TGF-beta-induced human CTGF promoter activity transiently transfected in human HepG2 cells assessed as CTGF expression preincubated at 700 nM for 1 hr before TGF-beta stimulation measured after 4 hrs by quantitative real-time PCR analysis; assay type: cell-based
HepG2 [8] = test: Inhibition of TGF-beta-induced human CTGF promoter activity transiently transfected in human HepG2 cells assessed as reduction in alpha-smooth muscle actin expression preincubated at 700 nM for 1 hr before TGF-beta stimulation measured after 6 hrs by quantitative real-time PCR analysis; assay type: cell-based
HepG2 [9] = test: Inhibition of TGF-beta-induced human CTGF promoter activity transiently transfected in human HepG2 cells assessed as reduction in plasminogen activator inhibitor-1 expression preincubated at 700 nM for 1 hr before TGF-beta stimulation measured after 6 hrs by quantitative real-time PCR analysis; assay type: cell-based
MDA-MB-231 [10] = test: Antimigratory activity against human MDA-MB-231 cells assessed as reduction in formation of tubule-like structures at 568 nM after 16 hrs by matrigel assay relative to control; assay type: functional; design: scale not given: the % may be the effect or the level left
HepG2 [11] = test: Inhibition of TGF-beta-induced human CTGF promoter activity transiently transfected in human HepG2 cells assessed as CTGF protein expression preincubated at 714 nM for 1 hr before TGF-beta stimulation measured after 8 hrs by Western blot analysis; assay type: cell-based
HepG2 [12] = test: as §2; assay type: cell-based
HepG2 [13] = test: Cytotoxicity against human HepG2 cells at 1.4 uM after 48 hrs by XTT assay; assay type: cell-based; conditions: hepg2, 48 h
MDA-MB-231 [14] = test: Cytotoxicity against human MDA-MB-231 cells at 1.4 uM after 48 hrs by XTT assay; assay type: cell-based; conditions: mda-mb-231, 48 h
HepG2 [15] = test: Cytotoxicity against human HepG2 cells at 3.2 uM after 48 hrs by XTT assay; assay type: cell-based; conditions: hepg2, 48 h
HepG2 [16] = test: Inhibition of TGF-beta-induced human CTGF promoter activity transiently transfected in human HepG2 cells assessed as CTGF protein expression preincubated at 3144 nM for 1 hr before TGF-beta stimulation measured after 8 hrs by Western blot analysis; assay type: cell-based
HepG2 [17] = test: as §1, with “activity measured as remaining activity” for “activity”, “preincubated at 2.2 uM” for “preincubated”; assay type: cell-based
HepG2 [18] = test: Inhibition of TGF-beta-induced human CTGF promoter activity transiently transfected in human HepG2 cells assessed as CTGF expression preincubated at 3.2 uM for 1 hr before TGF-beta stimulation measured after 4 hrs by quantitative real-time PCR analysis; assay type: cell-based
HepG2 [19] = test: Inhibition of TGF-beta-induced human CTGF promoter activity transiently transfected in human HepG2 cells assessed as reduction in plasminogen activator inhibitor-1 expression preincubated at 3.2 uM for 1 hr before TGF-beta stimulation measured after 6 hrs by quantitative real-time PCR analysis; assay type: cell-based
HepG2 [20] = test: Inhibition of TGF-beta-induced human CTGF promoter activity transiently transfected in human HepG2 cells assessed as reduction in type 1 collagen alpha1 expression preincubated at 3.2 uM for 1 hr before TGF-beta stimulation measured after 6 hrs by quantitative real-time PCR analysis; assay type: cell-based
MDA-MB-231 [21] = test: Antimigratory activity against human MDA-MB-231 cells assessed as reduction in formation of tubule-like structures at 2.4 uM after 16 hrs by matrigel assay relative to control; assay type: functional, cell-based
HepG2 [22] = test: Inhibition of TGF-beta-induced human CTGF promoter activity transiently transfected in human HepG2 cells assessed as reduction in mmp2 expression preincubated at 3.2 uM for 1 hr before TGF-beta stimulation measured after 6 hrs by quantitative real-time PCR analysis; assay type: cell-based
HepG2 [23] = test: Inhibition of TGF-beta-induced human CTGF promoter activity transiently transfected in human HepG2 cells assessed as reduction in alpha-smooth muscle actin expression preincubated at 3.2 uM for 1 hr before TGF-beta stimulation measured after 6 hrs by quantitative real-time PCR analysis; assay type: cell-based
MDA-MB-231 [24] = test: Cytotoxicity against human MDA-MB-231 cells at 3.2 uM after 48 hrs by XTT assay; assay type: cell-based; conditions: mda-mb-231, 48 h
HepG2 [25] = test: Inhibition of TGF-beta-induced human CTGF promoter activity transiently transfected in human HepG2 cells assessed as reduction in tgf-beta expression preincubated at 3.2 uM for 1 hr before TGF-beta stimulation measured after 6 hrs by quantitative real-time PCR analysis; assay type: cell-based
HepG2 [26] = test: Inhibition of TGF-beta-induced human CTGF promoter activity transiently transfected in human HepG2 cells assessed as reduction in mmp2 expression preincubated at 680 nM for 1 hr before TGF-beta stimulation measured after 6 hrs by quantitative real-time PCR analysis; assay type: cell-based
HepG2 [27] = test: Inhibition of TGF-beta-induced human CTGF promoter activity transiently transfected in human HepG2 cells assessed as CTGF protein expression preincubated at 407 nM for 1 hr before TGF-beta stimulation measured after 8 hrs by Western blot analysis; assay type: cell-based
HepG2 [28] = test: Inhibition of TGF-beta-induced human CTGF promoter activity transiently transfected in human HepG2 cells assessed as reduction in tgf-beta expression preincubated at 680 nM for 1 hr before TGF-beta stimulation measured after 6 hrs by quantitative real-time PCR analysis; assay type: cell-based
HepG2 [29] = test: Inhibition of TGF-beta-induced human CTGF promoter activity transiently transfected in human HepG2 cells assessed as reduction in alpha-smooth muscle actin expression preincubated at 680 nM for 1 hr before TGF-beta stimulation measured after 6 hrs by quantitative real-time PCR analysis; assay type: cell-based
HepG2 [30] = test: Inhibition of TGF-beta-induced human CTGF promoter activity transiently transfected in human HepG2 cells assessed as reduction in type 1 collagen alpha1 expression preincubated at 680 nM for 1 hr before TGF-beta stimulation measured after 6 hrs by quantitative real-time PCR analysis; assay type: cell-based
HepG2 [31] = test: Inhibition of TGF-beta-induced human CTGF promoter activity transiently transfected in human HepG2 cells assessed as CTGF expression preincubated at 680 nM for 1 hr before TGF-beta stimulation measured after 4 hrs by quantitative real-time PCR analysis; assay type: cell-based
MDA-MB-231 [32] = test: Antimigratory activity against human MDA-MB-231 cells assessed as reduction in formation of tubule-like structures at 136 nM after 16 hrs by matrigel assay relative to control; assay type: functional; design: scale not given: the % may be the effect or the level left
HepG2 [33] = test: Inhibition of TGF-beta-induced human CTGF promoter activity transiently transfected in human HepG2 cells assessed as reduction in plasminogen activator inhibitor-1 expression preincubated at 680 nM for 1 hr before TGF-beta stimulation measured after 6 hrs by quantitative real-time PCR analysis; assay type: cell-based
MDA-MB-231 [34] = test: Antimigratory activity against human MDA-MB-231 cells assessed as reduction in formation of tubule-like structures at 275 nM after 16 hrs by matrigel assay relative to untreated control; assay type: functional; design: scale not given: the % may be the effect or the level left

Structure (SMILES): C[C@H]1CCC/C=C/C(=O)c2c(O)cc(O)cc2CC(=O)O1 [DEHYDROCURVULARIN]
IC50 [1]: 1700 nM
IC50 [2]: 4400 nM

Structure (SMILES): C[C@H]1CCCCCC(=O)c2c(O)cc(O)cc2CC(=O)O1
IC50 [1]: 34200 nM
IC50 [2]: 86400 nM

Structure (SMILES): C/C1=C\CCC(C)(O)C(C)OC(=O)Cc2c(Cl)c(O)cc(O)c2C1=O (stereo unspecified)
inhibition (HepG2 [26]): Active
Activity (MDA-MB-231 [3]): Dose-dependent effect
IC50 [1]: 136 nM
inhibition (HepG2 [27]): Active
inhibition (HepG2 [28]): Active
inhibition (HepG2 [29]): Active
inhibition (HepG2 [30]): Active
inhibition (HepG2 [31]): Active
Activity (MDA-MB-231 [32]): >70%
inhibition (HepG2 [33]): Active
IC50 [2]: 136 nM
inhibition (HepG2 [12]): Dose-dependent effect

Structure (SMILES): c1ccc(-c2n[nH]cc2-c2ccnc3ccccc23)nc1
Activity (MDA-MB-231 [34]): 30%

Further lines, with some results ahead:

IC50 [1]: 210 nM
IC50 [2]: 336 nM
Structure (SMILES): C/C1=C\CCC(C)C(C)OC(=O)Cc2c(Cl)c(O)cc(O)c2C1=O (stereo unspecified)
Activity (MDA-MB-231 [3]): Dose-dependent effect
inhibition (HepG2 [4]): Active
inhibition (HepG2 [5]): Active
inhibition (HepG2 [6]): Active
inhibition (HepG2 [7]): Active
inhibition (HepG2 [8]): Active
inhibition (HepG2 [9]): Active
Activity (MDA-MB-231 [10]): >70%
inhibition (HepG2 [11]): inactive
inhibition (HepG2 [12]): Dose-dependent effect
Activity (HepG2 [13]): Non-toxic
Activity (MDA-MB-231 [14]): Non-toxic

IC50 [1]: > 2200 nM
IC50 [2]: 1800 nM
Structure (SMILES): C/C1=C\CCC(C)C(C)OC(=O)Cc2cc(O)cc(O)c2C1=O (stereo unspecified)
Activity (HepG2 [15]): Non-toxic
Activity (MDA-MB-231 [3]): Dose-dependent effect
inhibition (HepG2 [16]): inactive
inhibition (HepG2 [17]): Active
inhibition (HepG2 [18]): Active
inhibition (HepG2 [19]): Active
inhibition (HepG2 [20]): Active
Activity (MDA-MB-231 [21]): Active
inhibition (HepG2 [22]): Active
inhibition (HepG2 [23]): Active
Activity (MDA-MB-231 [24]): Non-toxic
inhibition (HepG2 [25]): Active
inhibition (HepG2 [12]): Dose-dependent effect
